{
  "source": "paper PMC7367283",
  "about": "“A PIP2 substitute mediates voltage sensor-pore coupling in KCNQ activation” (Communications Biology, 2020)",
  "target": "T1, IKs current (Chromanol 293B sensitive current) (Cavia porcellus, UniProt O70344)",
  "T1 construct": "Single ventricular myocytes were acutely enzymatically isolated from guinea pig heart; endogenous in cells; host or cells: freshly isolated guinea pig ventricular myocytes",
  "T1 sequence (O70344 1-671)": "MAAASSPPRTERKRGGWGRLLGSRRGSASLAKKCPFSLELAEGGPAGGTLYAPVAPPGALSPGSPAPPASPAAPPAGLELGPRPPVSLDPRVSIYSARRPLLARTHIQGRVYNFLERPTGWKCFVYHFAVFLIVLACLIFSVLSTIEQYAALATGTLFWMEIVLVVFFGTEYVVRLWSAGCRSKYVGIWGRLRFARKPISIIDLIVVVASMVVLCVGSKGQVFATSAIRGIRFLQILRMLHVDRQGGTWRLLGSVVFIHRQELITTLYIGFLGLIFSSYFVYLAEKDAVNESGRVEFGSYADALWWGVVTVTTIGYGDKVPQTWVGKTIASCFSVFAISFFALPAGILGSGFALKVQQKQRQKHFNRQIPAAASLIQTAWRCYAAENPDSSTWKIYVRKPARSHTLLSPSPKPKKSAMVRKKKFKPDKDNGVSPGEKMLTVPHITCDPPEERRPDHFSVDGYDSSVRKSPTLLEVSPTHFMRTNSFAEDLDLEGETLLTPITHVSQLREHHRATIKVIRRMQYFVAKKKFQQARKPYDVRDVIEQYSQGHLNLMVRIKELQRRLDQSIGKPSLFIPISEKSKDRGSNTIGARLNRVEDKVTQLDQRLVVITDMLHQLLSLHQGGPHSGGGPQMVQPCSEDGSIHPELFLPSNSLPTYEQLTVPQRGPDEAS",
  "test": "IKs measurements in isolated ventricular cells (whole-cell patch clamp);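 on IKs current against voltage, source data Fig. 7d: tail currents measured at the -20 mV return potential after each test voltage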",
  "type": "cell-based, guinea pig",
  "design": "key to IKs current against time, source data Fig. 7b: IKs current normalized to cell capacitance (current density)",
  "settings": "for IKs current against voltage, source data Fig. 7d / IKs current against time, source data Fig. 7b: individual cells",
  "excerpt": "The KCNQ1 and KCNE1 complex forms the cardiac IKs channel, which is important in terminating cardiac action potentials and regulating heart rate[1],[2],[13]. We tested if CP1 modulates the IKs channel in cardiac myocytes. Similar to the results from KCNQ1 + KCNE1 expressed in Xenopus oocytes, in guinea pig ventricular myocyte CP1 enhanced IKs current (Chromanol 293B sensitive current) amplitude (Fig. 7a–c), shifted the G–V relation to more negative voltages (Fig. 7d, e), and slowed the kinetics of deactivation (Fig. 7a).\nFig. 7 Effects of CP1 on IKs and action potentials in cardiomyocytes. a IKs currents in guinea pig ventricular myocytes in the absence and presence of 30 µM CP1 in the whole-cell patch-clamp configuration. Holding potential: −40 mV; testing potentials: −20 to +60 mV with 10-mV increment; returning potential: −20 mV. […] Guinea pig ventricular myocytes were first perfused with 10 µM CP1 and 10 µM chromanol. After APD reached steady state, 10 µM CP1 was constitutively perfused alone. Last, CP1 was washed out for near-full reversal of APD shortening. g Effects of 0.2 µM CP1 on LQT action potentials. To mimic the LQT, 100 µM moxifloxacin was applied 2 h before the treatment of CP1. h Change of action potential duration after application of different [CP1]s (n = 5–7). Tukey–Kramer ANOVA test was used to compare control cells in different CP1 concentration, # is significant at P < 0.05. Unpaired two-tailed Student t tests were used to compare control and moxifloxacin cells at different CP1 concentration: * is significant at P < 0.05.\nThe use of guinea pigs was approved by the Stony Brook University Institutional Animal Care and Use Committee. Single ventricular myocytes were acutely enzymatically isolated from guinea pig heart as previously described. Guinea pigs, weighing 300–500 g, were sacrificed by peritoneal injection of sodium pentobarbitone (1 ml, 390 mg/ml). The isolated cells were stored in KB solution containing (in mM) 83 KCl, 30 K2HPO4, 5 MgSO4, 5 Na pyruvate, 5 β-OH-butyric acid, 20 creatine, 20 taurine, 10 glucose, and 0.5 EGTA, pH 7.2.\nAn Axopatch 1D amplifier (Axon Instruments, Inc.) and the whole-cell patch-clamp technique were used to measure the IKs current. The patch pipette solution contained (in mM) 140 KMeSO3, 20 HEPES, 2 KCl, 5 EGTA, and 5 MgATP, pH 7.4. The external Tyrode contains (in mM) 137.7 NaCl, 2.3 NaOH, 8 KCl, 1 MaCl2, 5 HEPES, 1 CdCl2, and 10 Glucose, pH 7.4. The cells were held at −40 mV and stepped to −20 mV, then to +60 mV with an increment of 10 mV, to measure the membrane current in the absence and the presence of chromanol 293B (10 μM). The chromanol 293B sensitive current was defined as the IKs current normalized to its cell capacitance. These experimental protocols and conditions eliminate most of the other membrane currents, such as IP, INa, ICa, and INa/Ca, except IK, so that we could obtain better experiment resolution.\nElectrophysiology data were processed with IGOR (Wavemetrics, Lake Oswego, OR), Clampfit (Molecular Devices, Sunnyvale, CA), and SigmaPlot (SPSS, Inc., San Jose, CA). Normalized tail currents were plotted versus prepulse voltage and fitted with the Boltzmann function G = G0 + 1/(1 + exp(V − V1/2)/S), where G0 is the minimum conductance, V1/2 is the half-maximal voltage of activation, and S is the slope factor. Dose–response curves in Fig. 3 were fitted with the Hill equation, E = […], where EC50 is the drug concentration producing the half-maximum response and P is the Hill coefficient. In Fig. 7c, e, the EC50 values were obtained by fitting the data to IKs = IMin + (IMax − IMin) ([CP1]/([CP1] + EC50)) and V1/2 = V1/2 min + (V1/2Max − V1/2 min) ([CP1]/([CP1] + EC50)). The deactivation time course was fitted with single-exponential function. All data are expressed as mean ± SEM (n ≥ 3 or otherwise indicated). […]",
  "note": "Values joined by “and” are separate entries in the source; they are usually repeats but may differ in a detail not shown here. Equal values may be shown once.",
  "data": [
    {"compound": "O=S(=O)([O-])Oc1c(-c2sc3c(ccc4cccc(Cl)c43)c2OS(=O)(=O)[O-])[nH]c2ccc(Br)cc12.[Na+].[Na+]", "note": "[CP1, DISODIUM 5-BROMO-2-[9-CHLORO-3-(SULFONATOOXY) NAPHTHO [1,2-B] THIEN-2-YL]-1H-INDOL-3-YL SULFATE]", "values": [
      {"measurement": "IKs current against voltage, source data Fig. 7d", "setting": "0.2 µM CP1, V 0 mV", "result": "0.1478 and -0.1008 and 0.4867 and 0.5994 and 0.4202 and 0.2428"},
      {"measurement": "IKs current against voltage, source data Fig. 7d", "setting": "0.2 µM CP1, V 10 mV", "result": "0.1364 and -8.00E-03 and 0.5359 and 0.687 and 0.4359 and 0.4419"},
      {"measurement": "IKs current against voltage, source data Fig. 7d", "setting": "0.2 µM CP1, V 20 mV", "result": "0.5204 and 0.1788 and 0.7643 (2×) and 0.8582 and 0.5444"},
      {"measurement": "IKs current against voltage, source data Fig. 7d", "setting": "0.2 µM CP1, V 30 mV", "result": "0.487 and 0.358 and 1.0844 and 1.2573 and 1.0686 and 0.7892"},
      {"measurement": "IKs current against voltage, source data Fig. 7d", "setting": "0.2 µM CP1, V 40 mV", "result": "1.432 and 0.5726 and 1.6914 and 1.171 and 1.2536 and 1.1694"},
      {"measurement": "IKs current against voltage, source data Fig. 7d", "setting": "0.2 µM CP1, V 50 mV", "result": "1.7002 and 1.1486 and 1.9537 (2×) and 1.6685 and 1.6372"},
      {"measurement": "IKs current against voltage, source data Fig. 7d", "setting": "0.2 µM CP1, V 60 mV", "result": "2.1519 and 1.35 and 2.301 (2×) and 1.8192 and 1.8132"},
      {"measurement": "IKs current against voltage, source data Fig. 7d", "setting": "0.2 µM CP1, V -10 mV", "result": "0.058 and -0.1764 and 0.4431 and 0.2854 and 0.2431 and 0.2625"},
      {"measurement": "IKs current against voltage, source data Fig. 7d", "setting": "0.2 µM CP1, V -20 mV", "result": "-0.0553 and -0.0272 and 0.3362 and 0.2344 and 0.1098 and 0.1296"},
      {"measurement": "IKs current against time, source data Fig. 7b", "setting": "0.2 µM CP1, time 0.5 s", "result": "-0.15 and 2.22E-03 and 0.4227 and 0.5059 and 0.5369 and 0.8337"},
      {"measurement": "IKs current against time, source data Fig. 7b", "setting": "0.2 µM CP1, time 1.5 s", "result": "1.1736 and 1.2252 and 1.6869 and 1.7762 and 1.8153 and 1.921"},
      {"measurement": "IKs current against time, source data Fig. 7b", "setting": "0.2 µM CP1, time 2.5 s", "result": "2.3476 and 2.2614 and 2.5619 and 2.5792 and 2.5781 and 2.9902"},
      {"measurement": "IKs current against time, source data Fig. 7b", "setting": "0.2 µM CP1, time 3.5 s", "result": "4.1533 and 3.1046 and 3.3699 and 3.1301 and 3.5796 and 4.2972"},
      {"measurement": "IKs current against time, source data Fig. 7b", "setting": "0.2 µM CP1, time 4.5 s", "result": "4.9536 and 3.6388 and 3.9362 and 3.649 and 4.0225 and 4.5344"},
      {"measurement": "IKs current against voltage, source data Fig. 7d", "setting": "6 µM CP1, V 0 mV", "result": "0.1828 and 0.4288 and 0.6932 and 0.8299 and 0.4703 and 1.0496"},
      {"measurement": "IKs current against voltage, source data Fig. 7d", "setting": "6 µM CP1, V 10 mV", "result": "0.4205 and 0.6933 and 0.9149 and 1.2568 and 0.6403 and 1.5345"},
      {"measurement": "IKs current against voltage, source data Fig. 7d", "setting": "6 µM CP1, V 20 mV", "result": "0.8957 and 1.1412 and 1.496 and 1.8852 and 1.1797 and 2.1199"},
      {"measurement": "IKs current against voltage, source data Fig. 7d", "setting": "6 µM CP1, V 30 mV", "result": "2.1345 and 1.6765 and 2.1151 and 2.7982 and 1.9302 and 2.5318"},
      {"measurement": "IKs current against voltage, source data Fig. 7d", "setting": "6 µM CP1, V 40 mV", "result": "3.0845 and 2.1666 and 2.3348 and 3.4682 and 2.4976 and 3.0115"},
      {"measurement": "IKs current against voltage, source data Fig. 7d", "setting": "6 µM CP1, V 50 mV", "result": "3.95 and 2.5666 and 2.4371 and 4.0362 and 3.2962 and 3.3006"},
      {"measurement": "IKs current against voltage, source data Fig. 7d", "setting": "6 µM CP1, V 60 mV", "result": "4.0182 and 2.7319 and 3.0293 and 4.3101 and 3.6782 and 3.5497"},
      {"measurement": "IKs current against voltage, source data Fig. 7d", "setting": "6 µM CP1, V -10 mV", "result": "0.0746 and 0.3017 and 0.5691 and 0.6051"},
      {"measurement": "IKs current against time, source data Fig. 7b", "setting": "6 µM CP1, time 0.5 s", "result": "2.2824 and 1.9027 and 1.3849 and 1.6373 and 2.0899 and 2.4967"},
      {"measurement": "IKs current against time, source data Fig. 7b", "setting": "6 µM CP1, time 1.5 s", "result": "5.0013 and 4.6878 and 3.7768 and 4.1793 and 4.2368 and 4.8342"},
      {"measurement": "IKs current against time, source data Fig. 7b", "setting": "6 µM CP1, time 2.5 s", "result": "7.088 and 6.1654 and 5.3805 and 5.9272 and 5.6946 and 5.9483"},
      {"measurement": "IKs current against time, source data Fig. 7b", "setting": "6 µM CP1, time 3.5 s", "result": "7.9334 and 7.0333 and 6.1833 and 7.248 and 6.5654 and 6.4263"},
      {"measurement": "IKs current against time, source data Fig. 7b", "setting": "6 µM CP1, time 4.5 s", "result": "8.5672 and 7.9674 and 7.2346 and 7.483 and 7.0133 and 6.9913"},
      {"measurement": "IKs current against time, source data Fig. 7b", "setting": "30 µM CP1, time 0.5 s", "result": "7.2666 and 7.1831 and 9.1229 and 4.6448 and 5.4151 and 6.3301 and 8.2811"},
      {"measurement": "IKs current against time, source data Fig. 7b", "setting": "30 µM CP1, time 1.5 s", "result": "8.5502 and 9.0214 and 10.3674 and 6.9314 and 7.3351 and 7.6047 and 9.524"},
      {"measurement": "IKs current against time, source data Fig. 7b", "setting": "30 µM CP1, time 2.5 s", "result": "9.051 and 9.8065 and 11.122 and 8.4037 and 8.6405 and 8.1616 and 9.9386"},
      {"measurement": "IKs current against time, source data Fig. 7b", "setting": "30 µM CP1, time 3.5 s", "result": "9.3536 and 10.9247 and 11.9708 and 9.4071 and 9.5173 and 8.9351 and 10.1733"},
      {"measurement": "IKs current against time, source data Fig. 7b", "setting": "30 µM CP1, time 4.5 s", "result": "10.006 and 11.718 and 12.1269 and 10.5686 and 10.3666 and 9.5544 and 10.5156"},
      {"measurement": "EC50", "setting": "at +60 mV, read-out: EC50 of IKs current amplitude", "result": 7.54, "unit": "µM"}
    ]}
  ]
}
